Measurements reported in patent US9422254B2, “Methoxyacrylate-based fungicide and methods for preparing and using the same” (priority 2008, dated 2016).
“And” between values parts separate entries of the source, which are not always exact repeats. Equal values may be shown once.

How the values were obtained:
Sclerotinia sclerotirum = test: microbe, parasite or virus in culture; type: cell-based; details: read-out: Inhibition rate (%)
[1] = system: Colletotrichum lagenarium; test: microbe, parasite or virus in culture; type: cell-based; details: Colletotrichum orbiculare, read-out: Inhibition rate (%)
Phytophthora capsici = test: microbe, parasite or virus in culture; type: cell-based; details: read-out: Inhibition rate (%)
[2] = system: Botryosphaeria berengeriana; test: microbe, parasite or virus in culture; type: cell-based; details: read-out: Inhibition rate (%)
[3] = system: Helminthosporium torulosum; test: microbe, parasite or virus in culture; type: cell-based; details: Corynespora torulosa, read-out: Inhibition rate (%)
[4] = system: Rhizoctonia solani (wheat sheath blight); test: microbe, parasite or virus in culture; type: cell-based; details: read-out: Inhibition rate (%)
Fusarium moniliforme = test: microbe, parasite or virus in culture; type: cell-based; details: Fusarium verticillioides, read-out: Inhibition rate (%)
Diaporthe medusae = test: microbe, parasite or virus in culture; type: cell-based
Acute skin test = type: in vivo, rat; details: in vivo, topical
Procedure: (§1) The toxicological indexes of the compound were tested following the standard GB15670-1995 “Toxicological test methods of pesticides for registration” by Tongji Medical College, Huazhong University of Science and Technology.

rat = test: Acute skin test; type: in vivo; details: rat
Procedure: as §1

guinea pig skin = test: Skin sensitization test; type: in vivo
Procedure: as §1

[5] = system: Mice Polychromatic Erythrocytes; test: Micronucleus Test of Mice Polychromatic Erythrocytes; type: in vivo
Procedure: as §1

mice spermatogonial = test: Chromosome aberration test of mice spermatogonial; type: in vivo
Procedure: as §1

cucumber powdery mildew = test: Field efficacy trial of emulsifier concentrate 1, cucumber powdery mildew; type: in vivo
Procedure: (§2) To a beaker (1000 mL), 50 g (100% basis) of the compound of Formula (I), 150 g of DMF, and 50 g of acetone were added and stirred for dissolution. To the solution, 25 g of pesticide emulsifier No. 500 and 50 g of Tween 80, 20 g of epoxidized soybean oil, and […] of toluene were added. Thus, the emulsifier concentrate 1 having 5 wt. % of the compound of Formula (I) was obtained and further packed.
(§3) On the basis of indoor activity evaluation, field efficacy trials of the compound of Formula (I) on cucumber downy mildew, cucumber powdery mildew, and melon powdery mildew were conducted.

melon powdery mildew = test: Field efficacy trial of emulsifier concentrate 1, melon powdery mildew; type: in vivo
Procedure: as §2, §3

[6] = system: Cucumber gray mold (SC504002); test: In vivo micro-screening assay
Procedure: In Vivo Micro-Screening Assay
To further study the fungicidal spectrum of the compound of Formula (I), indoor in vivo micro-screening assay were carried out on cucumber gray mold, cucumber scab, cucumber sclerotinia rot, cucumber brown spot, pepper phytophthora blight, and rice sheath blight.
Medicament to be tested and medicament of control groups were prepared as needed in a sunny morning. Cucumber gray mold, cucumber scab, cucumber brown spot, cucumber sclerotinia rot, and rice sheath blight were medicated by spray, and after air dry, pathogens of cucumber scab and of cucumber brown spot were inoculated through spraying spore suspension respectively, pathogens of cucumber gray mold, of cucumber sclerotinia rot, and of rice sheath blight were inoculated through lawn foliage. Pepper phytophthora blight was medicated and inoculated by root-irrigation. Subsequently, all seedlings were cultured in wet environment.
After the disease of control groups were serious, spot area, disease index, and the diseased seedling rate were investigated to calculate the efficacy. Cucumber scab, cucumber brown spot, and pepper phytophthora blight were investigated by grading method. The spot extension area of cucumber gray mold and of rice sheath blight was investigated. The diseased seedling rate of cucumber sclerotinia rot was investigated. Disease index=Σ(amount of infected diseased leaves in a grade×relative value of the grade)×100/(total amount of leaves×9); Diseased seedling rate (%)=(total amount of seedlings−amount of diseased seedlings)/total amount of seedlings×100% Prevention and treatment effect (%)=(disease of control group−disease of experiment group)/disease of control group×100%

[7] = 12.5 mg/L, 7th day after first administration
[8] = 12.5 mg/L, 7th day after second administration
[9] = 12.5 mg/L, 14th day after second administration
[10] = 25 mg/L, 7th day after first administration
[11] = 25 mg/L, 7th day after second administration
[12] = 25 mg/L, 14th day after second administration
[13] = 50 mg/L, 7th day after first administration
[14] = 50 mg/L, 7th day after second administration
[15] = 50 mg/L, 14th day after second administration
[16] = 100 mg/L, 7th day after first administration
[17] = 100 mg/L, 7th day after second administration
[18] = 100 mg/L, 14th day after second administration

Structure (SMILES): CO/C=C(/C(=O)OC)c1ccccc1CSc1nc2cc(OC)ccc2s1 [Compound of Formula (I), (E)-methyl 3-methoxy-2-(2-((5-methoxy-benzothiazol-2-ylthio)methyl)phenyl)acrylate]
- inhibition at 0.3 µg/mL (Sclerotinia sclerotirum; 0.3 mg/L): 50.8%
- inhibition at 3 µg/mL (Sclerotinia sclerotirum; 3 mg/L): 61%
- inhibition at 30 µg/mL (Sclerotinia sclerotirum; 30 mg/L): 80%
- inhibition at 0.3 µg/mL ([1]; 0.3 mg/L): 42%
- inhibition at 3 µg/mL ([1]; 3 mg/L): 44.2%
- inhibition at 30 µg/mL ([1]; 30 mg/L): 50.7%
- inhibition at 0.3 µg/mL (Phytophthora capsici; 0.3 mg/L): 0%
- inhibition at 3 µg/mL (Phytophthora capsici; 3 mg/L): 23.1%
- inhibition at 30 µg/mL (Phytophthora capsici; 30 mg/L): 28.9%
- inhibition at 0.3 µg/mL ([2]; 0.3 mg/L): 44.1%
- inhibition at 3 µg/mL ([2]; 3 mg/L): 49.6%
- inhibition at 30 µg/mL ([2]; 30 mg/L): 63.6%
- inhibition at 0.3 µg/mL ([3]; 0.3 mg/L): 11.3%
- inhibition at 3 µg/mL ([3]; 3 mg/L): 18.4%
- inhibition at 30 µg/mL ([3]; 30 mg/L): 21.4%
- inhibition at 0.3 µg/mL ([4]; 0.3 mg/L): 22.2%
- inhibition at 3 µg/mL ([4]; 3 mg/L): 44.4%
- inhibition at 30 µg/mL ([4]; 30 mg/L): 68.5%
- inhibition at 0.3 µg/mL (Fusarium moniliforme; 0.3 mg/L): 9.6%
- inhibition at 3 µg/mL (Fusarium moniliforme; 3 mg/L): 30.8%
- inhibition at 30 µg/mL (Fusarium moniliforme; 30 mg/L): 43.6%
- in vitro effect (Diaporthe medusae): particularly effective
- inhibition at 0.3 µg/mL (Diaporthe medusae; Diaporthe, 0.3 mg/L, read-out: Inhibition rate (%)): 55.3%
- inhibition at 3 µg/mL (Diaporthe medusae; Diaporthe, 3 mg/L, read-out: Inhibition rate (%)): 80.1%
- inhibition at 30 µg/mL (Diaporthe medusae; Diaporthe, 30 mg/L, read-out: Inhibition rate (%)): 87.2%
- LD50 (Acute skin test; Female rat): > 2000 mg/kg
- LD50 (Acute skin test; Male rat): > 2000 mg/kg
- Toxicity (acute skin test) (rat): Low toxicity
- Skin sensitization (guinea pig skin): Weak allergen (grade I) on guinea
- Micronucleus Test of Mice Polychromatic Erythrocytes [5]: Negative
- Chromosome aberration test of mice spermatogonial (mice spermatogonial): Negative
- Disease index (%) (cucumber powdery mildew; 12.5 mg/L, 7th day, Average): 5.9%
- Efficacy (%) (cucumber powdery mildew; 12.5 mg/L, 7th day, Average): 70.50%
- Disease index (%) (cucumber powdery mildew; 12.5 mg/L, 7th day, No. 1-4): 5.5% and 6.7% and 5.8%
- Efficacy (%) (cucumber powdery mildew; 12.5 mg/L, 7th day, No. 1-4): 71.05% and 70.59% and 71.54% and 69.71%
- Disease index (%) (cucumber powdery mildew; 12.5 mg/L, 14th day, Average): 6.8%
- Efficacy (%) (cucumber powdery mildew; 12.5 mg/L, 14th day, Average): 75.66%
- Disease index (%) (cucumber powdery mildew; 12.5 mg/L, 14th day, No. 1-4): 6.4% and 6.3% and 7.8% and 6.6%
- Efficacy (%) (cucumber powdery mildew; 12.5 mg/L, 14th day, No. 1-4): 74.80% and 76.40% and 75.73% and 76.45%
- Disease index (%) (cucumber powdery mildew; 12.5 mg/L, 21st day, Average): 12.7%
- Efficacy (%) (cucumber powdery mildew; 12.5 mg/L, 21st day, Average): 68.91%
- Disease index (%) (cucumber powdery mildew; 12.5 mg/L, 21st day, No. 1-4): 12.6% and 12.0% and 13.9% and 12.3%
- Efficacy (%) (cucumber powdery mildew; 12.5 mg/L, 21st day, No. 1-4): 67.88% and 68.34% and 69.40% and 70.29%
- Disease index (%) (cucumber powdery mildew; 25 mg/L, 7th day, Average): 3.9%
- Efficacy (%) (cucumber powdery mildew; 25 mg/L, 7th day, Average): 77.54%
- Disease index (%) (cucumber powdery mildew; 25 mg/L, 7th day, No. 1-4): 3.6% and 4.2% and 4.6% and 3.3%
- Efficacy (%) (cucumber powdery mildew; 25 mg/L, 7th day, No. 1-4): 78.48% and 76.74% and 77.57% and 77.35%
- Disease index (%) (cucumber powdery mildew; 25 mg/L, 14th day, Average): 4.0%
- Efficacy (%) (cucumber powdery mildew; 25 mg/L, 14th day, Average): 83.51%
- Disease index (%) (cucumber powdery mildew; 25 mg/L, 14th day, No. 1-4): 3.5% and 4.2% and 4.8%
- Efficacy (%) (cucumber powdery mildew; 25 mg/L, 14th day, No. 1-4): 84.35% and 83.71% and 82.85% and 83.59%
- Disease index (%) (cucumber powdery mildew; 25 mg/L, 21st day, Average): 7.0%
- Efficacy (%) (cucumber powdery mildew; 25 mg/L, 21st day, Average): 77.78%
- Disease index (%) (cucumber powdery mildew; 25 mg/L, 21st day, No. 1-4): 6.8% and 8.0% and 6.2%
- Disease index (%) (cucumber powdery mildew; 50 mg/L, 7th day, Average): 2.4%
- Efficacy (%) (cucumber powdery mildew; 50 mg/L, 7th day, Average): 85.63%
- Disease index (%) (cucumber powdery mildew; 50 mg/L, 7th day, No. 1-4): 2.1% and 2.4% and 2.8% and 2.2%
- Efficacy (%) (cucumber powdery mildew; 50 mg/L, 7th day, No. 1-4): 85.88% and 84.49% and 86.18% and 85.31%
- Disease index (%) (cucumber powdery mildew; 50 mg/L, 14th day, Average): 2.1%
- Efficacy (%) (cucumber powdery mildew; 50 mg/L, 14th day, Average): 90.99%
- Disease index (%) (cucumber powdery mildew; 50 mg/L, 14th day, No. 1-4): 2.1% and 1.8% and 2.7% and 1.9%
- Efficacy (%) (cucumber powdery mildew; 50 mg/L, 14th day, No. 1-4): 89.44% and 91.85% and 90.23% and 91.34%
- Disease index (%) (cucumber powdery mildew; 50 mg/L, 21st day, Average): 3.6%
- Efficacy (%) (cucumber powdery mildew; 50 mg/L, 21st day, Average): 89.45%
- Disease index (%) (cucumber powdery mildew; 50 mg/L, 21st day, No. 1-4): 3.2% and 3.0% and 4.4% and 3.7%
- Efficacy (%) (cucumber powdery mildew; 50 mg/L, 21st day, No. 1-4): 89.57% and 90.44% and 88.74% and 88.58%
- Disease index (%) (cucumber powdery mildew; 100 mg/L, 7th day, Average): 1.5%
- Efficacy (%) (cucumber powdery mildew; 100 mg/L, 7th day, Average): 91.67%
- Disease index (%) (cucumber powdery mildew; 100 mg/L, 7th day, No. 1-4): 1.7% and 1.2% and 1.9%
- Efficacy (%) (cucumber powdery mildew; 100 mg/L, 7th day, No. 1-4): 91.17% and 92.74% and 90.16% and 92.41%
- Disease index (%) (cucumber powdery mildew; 100 mg/L, 14th day, Average): 1.2%
- Efficacy (%) (cucumber powdery mildew; 100 mg/L, 14th day, Average): 95.23%
- Disease index (%) (cucumber powdery mildew; 100 mg/L, 14th day, No. 1-4): 0.9% and 1.3% and 1.4% and 1.0%
- Efficacy (%) (cucumber powdery mildew; 100 mg/L, 14th day, No. 1-4): 96.46% and 94.43% and 95.18% and 95.68%
- Disease index (%) (cucumber powdery mildew; 100 mg/L, 21st day, Average): 2.9%
- Efficacy (%) (cucumber powdery mildew; 100 mg/L, 21st day, Average): 91.52%
- Disease index (%) (cucumber powdery mildew; 100 mg/L, 21st day, No. 1-4): 3.3% and 2.6% and 2.8% and 3.0%
- Efficacy (%) (cucumber powdery mildew; 100 mg/L, 21st day, No. 1-4): 91.58% and 92.15% and 93.17% and 91.23%
- Disease index (melon powdery mildew; [7]): 8.80
- Efficacy (%) (melon powdery mildew; [7]): 27.16%
- Disease index (melon powdery mildew; [8]): 13.44
- Efficacy (%) (melon powdery mildew; [8]): 61.65%
- Disease index (melon powdery mildew; [9]): 40.33
- Efficacy (%) (melon powdery mildew; [9]): 29.55%
- Disease index (melon powdery mildew; [10]): 7.11
- Efficacy (%) (melon powdery mildew; [10]): 34.38%
- Disease index (melon powdery mildew; [11]): 13.63
- Efficacy (%) (melon powdery mildew; [11]): 67.15%
- Disease index (melon powdery mildew; [12]): 31.50
- Efficacy (%) (melon powdery mildew; [12]): 47.00%
- Disease index (melon powdery mildew; [13]): 7.92
- Efficacy (%) (melon powdery mildew; [13]): 35.77%
- Disease index (melon powdery mildew; [14]): 10.88
- Efficacy (%) (melon powdery mildew; [14]): 75.54%
- Disease index (melon powdery mildew; [15]): 30.42
- Efficacy (%) (melon powdery mildew; [15]): 54.57%
- Disease index (melon powdery mildew; [16]): 6.29
- Efficacy (%) (melon powdery mildew; [16]): 39.15%
- Disease index (melon powdery mildew; [17]): 4.52
- Efficacy (%) (melon powdery mildew; [17]): 86.22%
- Disease index (melon powdery mildew; [18]): 19.45
- Efficacy (%) (melon powdery mildew; [18]): 63.47%
- Efficacy (%) ([6]; 100 mg/L): 88.71%
- Spot area (mm^2) ([6]; 100 mg/L): 6.82 mm^2
- Efficacy (%) ([6]; 500 mg/L): 90.67%
- Spot area (mm^2) ([6]; 500 mg/L): 5.64 mm^2
